Measurements from patent US4117121A, “Method of increasing bile flow and decreasing lipid levels” (Hoffmann-La Roche Inc., priority 1977, dated 1978).

Experiments:
[1] = test system: bile flow; assay: Comparative effect on bile flow (Example 2); type: in vivo, female rats; settings: 100 mg intragastrically, vs average bile of two hours preceding treatment
Experimental: Female rats, weighing approximately 250 g, were fasted overnight prior to surgery; water was allowed ad libitum. The surgical procedures involving cannulation of the upper part of the common bile duct were carried out under Penthrane anesthesia. A catheter placed in the avascular part of the stomach was used for intragastric administration of emulsion; another catheter was placed in the duodenum. After surgery the rats were kept in restraining cages. Intraduodenal infusion of bile (collected previously from donors) was then started at the rate of 0.9 ml/hr. The infusion pressure was kept constant by means of a pump. Hydration was maintained by allowing the animals to drink saline ad libitum.
All rats were allowed~20 hours to recover from surgery. During this post-surgical period bile was collected in pooled samples of 16-18 hours. Having achieved steady hourly flow, the two samples obtained prior to the actual experiment were collected individually and considered as a control standard for each rat.
Bile samples were collected hourly, over a 24-hour period. The volume was measured to the nearest 0.1 ml.
The values in Table III were expressed for the purpose of the analysis, as a percent change from average bile collected in the two hours immediately preceding treatment.

[2] = test system: bile flow; assay: Stimulation of bile flow (Example 1); type: in vivo, female albino rats (Charles River); settings: 100 mg orally, over the Na-TC control
From the text: (§1) In these studies female albino rats (Charles River), weighing 300 ± 10 g were kept on a Purina chow diet ad libitum until the time of operation. […] This preparation enabled the production of lymph at a constant rate, the infusion of a bile salt, and the simultaneous collection of bile.
(§2) All animals received, after operation, a continuous duo denal infusion of sodium taurocholate (Na-TC) in 0.85% NaCl. One day after operation, the rats were given, by stomach intubation, an emulsion containing about 4% triolein, 20 μC of 4-^14 C-cholesterol (Specific Activity 61.7 mC/mM, 159 μC/mg), 2 mg of cholesterol, in addition to protein, carbohydrate, and saline. Both the Na-TC and the cholesterol carrier employed gave a single spot on either thin layer or glass fiber paper chromatograph so no further purification was attempted. The commercial glyceryl trioleate contained a large percentage of di- and monoolein. Triolein was, therefore, purified by passage through a silicic acid column; the final product gave a single spot on either glass fiber paper or thin layer chromatography.
(§3) To 4 ml of this emulsion was added 100 mg of either Na-TC (control group) or compounds A through D. This mixture was given orally to the animals.
(§4) The sampling of thoracic duct lymph and of bile was divided into two collecting periods, 0-8 and 9-24 h after emulsion administration.
In this table the results are expressed as the % increase in bile flow over the control.

[3] = test system: intestinal absorbtion of CHOLESTEROL; assay: Intestinal absorption of cholesterol: appearance of 4-14C-cholesterol in thoracic duct lymph; type: in vivo, female albino rats (Charles River); settings: 100 mg orally, vs Na-TC control, 14C-cholesterol in lymph; for % decrease of cholesterol, 0-8 hours: 0-8 hours after emulsion; for % decrease of cholesterol, 9-24 hours: 9-24 hours after emulsion
From the text: as §1, §2, §3, §4
Lymph specimens were lyophilized and the lipids in the residue were extracted with ethanol-isopropyl ether, 2:1 parts by volume, by procedure described in Gallo-Torres, et al; Biophys. Acta, 176 605-615 (1969). An aliquot of the lipid extract was placed on a small piece of glass fiber paper and counted. Another aliquot was used for the separation of cholesterol and its esters by glass fiber paper chromatography.
The effect of compounds A through D derivatives on the appearance of total ^14 C-cholesterol in the thoracic duct lymph of rats is summarized in Table I. Of the dose administered to the control animals, 5 × 10^5 dpm were recovered in the first 8 h and 3.4 × 10^6 dpm in the period of 9-24 h following administration of the emulsion. […] The tolerance of cholesterol in Table I is the % decrease in the 4-^14 C-cholesterol over the control appearing in the lymph during the specified period.

[4] = test system: triglyceride absorption; assay: Inhibition of absorption of dietary triglyceride after oral corn oil load; type: in vivo, rats
Experimental: The ability of compound A to inhibit the absorption of dietary triglyceride in rats is determined by analyzing the rise in serum triglycerides after an oral load of corn oil. To 24 hours fasted rats (6 per group), compound A was administered orally at 1.1 mmoles/kg 15 minutes before a single oral dose of corn oil ([…]). Blood samples (0.4 ml) were collected from the rat tail 0, 2, 4, 6, 8 and 24 hours after compound administration. Each rat is its own control. Plasma samples were analyzed for triglyceride content by the procedure set forth in Kessler and H. Lederer, Tehnicon Symposium 1965 Automation in Analytical Chemistry Ed. L. Skeggs, published Mediad Inc. N.Y. (1966)pp341. The data in Table V is expressed as mg% change in plasma triglyceride levels compared to zero time control values at each time interval. This change in plasma triglycerides was determined by calculating the difference between the triglyceride level at each time point compared to zero time control level.
The procedure of Example 4 was followed except groups of 4 were utilized. Compound B was administered.

[5] = molecular target: T1, rat pancreatic lipase (Rattus norvegicus, UniProt P27657); assay: Inhibition of rat pancreatic lipase in vitro; type: biochemical; settings: 14C-triolein emulsion, pH 8.6, 20 min at 37° C.
T1 sequence (P27657 17-465): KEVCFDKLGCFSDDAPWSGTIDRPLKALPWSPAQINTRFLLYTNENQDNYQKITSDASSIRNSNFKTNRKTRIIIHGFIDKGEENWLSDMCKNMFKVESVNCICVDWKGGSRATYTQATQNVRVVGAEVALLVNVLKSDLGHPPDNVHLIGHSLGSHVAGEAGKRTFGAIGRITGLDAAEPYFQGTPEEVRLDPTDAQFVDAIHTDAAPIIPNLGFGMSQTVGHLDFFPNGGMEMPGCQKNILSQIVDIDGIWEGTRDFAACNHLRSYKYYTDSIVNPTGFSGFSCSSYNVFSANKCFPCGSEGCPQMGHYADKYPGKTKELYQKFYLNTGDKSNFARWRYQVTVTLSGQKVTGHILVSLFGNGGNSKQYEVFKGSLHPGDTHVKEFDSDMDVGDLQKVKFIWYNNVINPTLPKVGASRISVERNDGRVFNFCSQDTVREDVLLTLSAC
Experimental: Dietary long-chain triglycerides must be hydrolyzed by pancreatic lipase in the duodenum before absorption can occur. […] The capacity of compounds B and C to inhibit rat pancreatic lipase in vitro was investigated. The ability of compounds to inhibit rat pancreatic lipase is determined by analyzing the nmoles of free fatty acid [oleic acid] released from [^14 C]-triolein. Compounds of B and C are added to an emulsion consisting of: 200,000 dpm ^14 C-triolein, 7.5 mg triolein, 0.75 mg sodium taurocholate, 15 mg bovine serum albumin and 0.9 ml 0.2 M tris-HCl - 0.15 M NaCl, pH 8.6, per assay. Water and/or pancreatic lipase is added to make an assay volume of 1.0 ml. The emulsion is incubated for 20 min at 37° C. in a shaking water bath. The reaction is stopped by the addition of isopropanol; H2 SO4 (40:1). The lipids are extracted twice with 3 ml volumes of hexane. The liberated fatty acids are extracted with 2 ml of 0.1 N KOH in 50% methanol. A 1 ml aliquot of the KOH layer is placed in a scintillation vial with 10 ml of 2,5-bis-2- (5-tertiarybutyl benzoxazolyl)thiophene. The radioactivity is determined in a scintillation counter. Data are expressed as nmoles free fatty acid [oleic acid] released.

[6] = test system: cholesterol-7α-hydroxylase; assay: Effect on activity of cholesterol-7α-hydroxylase; settings: in words

Structure (SMILES): C[C@H](CCC(=O)O)[C@H]1CC[C@H]2[C@@H]3[C@H](O)C[C@@H]4C[C@H](O)CC[C@]4(C)[C@H]3CC[C@]12C [CDC, chenodeoxycholic acid]
- % increase in Bile Flow, 0-12 hours [1]: +504%
- % increase in Bile Flow, 13-24 hours [1]: +9%
- % increase in Bile Flow, overall 24 hour period [1]: +513%

Structure (SMILES): C[C@]12CC[C@@H](O)C[C@H]1CC[C@@H]1[C@@H]2C[C@H](O)[C@]2(C)[C@@H](C(=O)O)CC[C@@H]12 [Compound A, 3α, 12α-dihydroxy-etiocholane-17β-carboxylicacid]
- % increase of Bile Flow, 0-8 hours [2]: +18%
- % increase of Bile Flow, 9-24 hours [2]: -3%
- % decrease of cholesterol, 0-8 hours [3]: 0%
- % decrease of cholesterol, 9-24 hours [3]: 79%
- Change in Plasma Triglyceride Levels, 4 hr ([4]; 4 hr, 1.1 mmoles/kg orally, 15 minutes before corn oil, 6 per group, vs zero time): 50 ± 13 mg%
- Change in Plasma Triglyceride Levels, 6 hr ([4]; 6 hr, 1.1 mmoles/kg orally, 15 minutes before corn oil, 6 per group, vs zero time): 113 ± 34 mg%
- Change in Plasma Triglyceride Levels, 8 hr ([4]; 8 hr, 1.1 mmoles/kg orally, 15 minutes before corn oil, 6 per group, vs zero time, *p<0.05): 164 ± 40 mg%
- Change in Plasma Triglyceride Levels, 24 hr ([4]; 24 hr, 1.1 mmoles/kg orally, 15 minutes before corn oil, 6 per group, vs zero time): 83 ± 11 mg%
- Change in Plasma Triglyceride Levels, 2 hr ([4]; po, 1100 umol/kg): 37 ± 9 mg%
- % increase in Bile Flow, 0-12 hours [1]: +286%
- % increase in Bile Flow, 13-24 hours [1]: +79%
- % increase in Bile Flow, overall 24 hour period [1]: +365%

Structure (SMILES): C[C@H](C(=O)O)[C@H]1CC[C@H]2[C@@H]3CC[C@@H]4C[C@H](O)CC[C@]4(C)[C@H]3C[C@H](O)[C@]12C [Compound B, 3α, 12α-dihydroxy-5β-23,24-bisnorcholanic acid]
- % increase of Bile Flow, 0-8 hours [2]: +38%
- % increase of Bile Flow, 9-24 hours [2]: +47%
- % decrease of cholesterol, 0-8 hours [3]: 0%
- % decrease of cholesterol, 9-24 hours [3]: 0%
- Change in Plasma Triglycerides, 2 hr ([4]; Example 5, 2 hr, procedure of Example 4, groups of 4): -3 mg%
- Change in Plasma Triglycerides, 4 hr ([4]; Example 5, 4 hr, procedure of Example 4, groups of 4): 7 mg%
- Change in Plasma Triglycerides, 6 hr ([4]; Example 5, 6 hr, procedure of Example 4, groups of 4): 15 mg%
- Change in Plasma Triglycerides, 8 hr ([4]; Example 5, 8 hr, procedure of Example 4, groups of 4): 54 mg%
- Change in Plasma Triglycerides, 24 hr ([4]; Example 5, 24 hr, procedure of Example 4, groups of 4): 30 mg%
- Ki [5]: 14 mM
- % increase in Bile Flow, 0-12 hours [1]: +517%
- % increase in Bile Flow, 13-24 hours [1]: +113%
- % increase in Bile Flow, overall 24 hour period [1]: +630%

Structure (SMILES): C[C@H](CC(=O)O)[C@H]1CC[C@H]2[C@@H]3CC[C@@H]4C[C@H](O)CC[C@]4(C)[C@H]3C[C@H](O)[C@]12C [Compound C, 3α, 12α-dihydroxy-5-β-norcholanic acid]
- % increase of Bile Flow, 0-8 hours [2]: +4%
- % increase of Bile Flow, 9-24 hours [2]: +30%
- % decrease of cholesterol, 0-8 hours [3]: 40%
- % decrease of cholesterol, 9-24 hours [3]: 53%
- Ki [5]: 1 mM

Structure (SMILES): C[C@H](CCO)[C@H]1CC[C@H]2[C@@H]3CC[C@@H]4C[C@H](O)CC[C@]4(C)[C@H]3C[C@H](O)[C@]12C [Compound D, 3α, 12α, 23-trihydroxy-5β-24-norcholane]
- % increase of Bile Flow, 0-8 hours [2]: +22%
- % increase of Bile Flow, 9-24 hours [2]: +14%
- % decrease of cholesterol, 0-8 hours [3]: 84%
- % decrease of cholesterol, 9-24 hours [3]: 44%

Structure (SMILES): C[C@H](CCC(=O)O)[C@H]1CC[C@H]2[C@@H]3[C@H](O)C[C@@H]4C[C@H](O)CC[C@]4(C)[C@H]3C[C@H](O)[C@]12C [cholic acid, 3α, 7α, 12α-trihydroxy-5β-cholanic acid]
- % increase in Bile Flow, 0-12 hours [1]: +161%
- % increase in Bile Flow, overall 24 hour period [1]: +38%
- effect on the activity of cholesterol-7α-hydroxylase [6]: adverse effect

Structure (SMILES): C[C@H](CCC(=O)O)[C@H]1CC[C@H]2[C@@H]3CC[C@@H]4C[C@H](O)CC[C@]4(C)[C@H]3C[C@H](O)[C@]12C [deoxycholic acid, 3α, 12α-dihydroxy-5β-cholanic acid]
- % increase in Bile Flow, 0-12 hours [1]: +335%
- % increase in Bile Flow, overall 24 hour period [1]: +219%
- effect on the activity of cholesterol-7α-hydroxylase [6]: adverse effect
